Test results taken from ChEMBL document CHEMBL5715952 (Oncotarget, 2015).

Assays:
cells [1] = conditions: Homo sapiens, Melphalan-resistant RPMI-8226 cell, 72 h
cells [2] = conditions: Homo sapiens, U-266, 72 h
cells [3] = conditions: Homo sapiens, ANBL-6, 72 h
cells [4] = conditions: Homo sapiens, RPMI-8226, 72 h
cells [5] = conditions: Homo sapiens, Bortezomib-resistant ANBL6 cell, 72 h
cells [6] = conditions: Homo sapiens, Bortezomib-resistant RPMI-8226, 72 h
cells [7] = conditions: Homo sapiens, Bortezomib-resistant RPMI-8226, 72 h; remark: listed apart in the source
cells [8] = conditions: Homo sapiens, ANBL-6, 72 h; remark: listed apart in the source
cells [9] = conditions: Homo sapiens, RPMI-8226, 72 h; remark: listed apart in the source
cells [10] = conditions: Homo sapiens, Bortezomib-resistant ANBL6 cell, 72 h; remark: listed apart in the source
cells [11] = conditions: Homo sapiens, U-266, 72 h; remark: listed apart in the source
cells [12] = conditions: Homo sapiens, Melphalan-resistant RPMI-8226 cell, 72 h; remark: listed apart in the source
[13] = biological target: Baculoviral IAP repeat-containing protein 5 (Homo sapiens) (UniProt O15392); experiment: Ratio of IC50 for inhibition of survivin in human RPMI-8226 cells assessed as reduction of cell viability to IC50 for inhibition of survivin in human melphalan-resistant RPMI-8226 cells assessed as reduction of cell viability; type: cell-based; conditions: time 72.0 hrs
[14] = biological target: Baculoviral IAP repeat-containing protein 5 (Homo sapiens) (UniProt O15392); experiment: Ratio of IC50 for inhibition of survivin in human RPMI-8226 cells assessed as reduction of cell viability to IC50 for inhibition of survivin in human RPMI-8226/BR resistant cells assessed as reduction of cell viability; type: cell-based
[15] = biological target: Baculoviral IAP repeat-containing protein 5 (Homo sapiens) (UniProt O15392); experiment: Ratio of IC50 for inhibition of survivin in human ANBL6 cells assessed as reduction of cell viability to IC50 for inhibition of survivin in human ANBL6/BR resistant cells assessed as reduction of cell viability; type: cell-based
cells [16] = conditions: Homo sapiens, Bortezomib-resistant RPMI-8226, 72 h; remark: listed apart in the source
Heat shock protein HSP90 [17] = biological target: T1, Heat shock protein HSP90 (Homo sapiens, UniProt P07900+P08238); conditions: u-266
Heat shock protein HSP90 [18] = biological target: T1, Heat shock protein HSP90; conditions: anbl-6
Heat shock protein HSP90 [19] = biological target: T1, Heat shock protein HSP90; conditions: bortezomib-resistant anbl6 cell
Heat shock protein HSP90 [20] = biological target: T1, Heat shock protein HSP90; conditions: bortezomib-resistant rpmi-8226
Heat shock protein HSP90 [21] = biological target: T1, Heat shock protein HSP90; conditions: melphalan-resistant rpmi-8226 cell
Heat shock protein HSP90 [22] = biological target: T1, Heat shock protein HSP90; conditions: rpmi-8226

Baculoviral IAP repeat-containing protein 5 (Homo sapiens), sequence (O15392 whole entry): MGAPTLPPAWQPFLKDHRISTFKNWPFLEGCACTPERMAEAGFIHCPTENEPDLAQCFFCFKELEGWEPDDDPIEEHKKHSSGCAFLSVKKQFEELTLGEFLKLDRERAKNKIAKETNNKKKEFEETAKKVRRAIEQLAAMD

SMILES: O=c1cc(N2CCOCC2)oc2c(-c3ccccc3)cccc12 [LY-294002]
- IC50 (cells [1]): 2.23 µM
- IC50 (cells [2]): 6.58 µM
- IC50 (cells [3]): 9.87 µM
- IC50 (cells [4]): 1.43 µM
- IC50 (cells [5]): 2.42 µM
- IC50 (cells [6]): 1.33 µM

SMILES: COc1cc2nccc(Oc3ccc(NC(=O)Nc4cc(C)on4)c(Cl)c3)c2cc1OC [TIVOZANIB]
- IC50 (cells [7]): 1620 nM
- IC50 (cells [8]): 4.07 µM
- IC50 (cells [9]): 4.47 µM
- IC50 (cells [10]): 10 µM
- IC50 (cells [11]): 10 µM
- IC50 (cells [12]): 4.9 µM

SMILES: COCC[n+]1c2c(n(Cc3cnccn3)c1C)C(=O)c1ccccc1C2=O
- Ratio IC50 [13]: 1.5
- Ratio IC50 [14]: 0.33
- Ratio IC50 [15]: 3.15

SMILES: Cn1cc(-c2ccc3nnc(C(F)(F)c4ccc5ncccc5c4)n3n2)cn1 [JNJ-38877605]
- IC50 (cells [16]): 10 µM

SMILES: Cc1[nH]c(/C=C2/C(=O)Nc3ccc(S(=O)(=O)N(C)c4cccc(Cl)c4)cc32)c(C)c1C(=O)N1CCN(C)CC1
- IC50 (cells [16]): 10 µM

SMILES: CN(NC(=O)CC(=O)NN(C)C(=S)c1ccccc1)C(=S)c1ccccc1 [ELESCLOMOL]
- IC50 (Heat shock protein HSP90 [17]): 53.5 nM
- IC50 (Heat shock protein HSP90 [18]): 48.9 nM
- IC50 (Heat shock protein HSP90 [19]): 7.6 nM
- IC50 (Heat shock protein HSP90 [20]): 22.9 nM
- IC50 (Heat shock protein HSP90 [21]): 7.2 nM
- IC50 (Heat shock protein HSP90 [22]): 16.7 nM

SMILES: CC[C@H](Nc1ncnc2[nH]cnc12)c1nc2cccc(F)c2c(=O)n1-c1ccccc1 [IDELALISIB]
- IC50 (cells [1]): 10 µM
- IC50 (cells [2]): 10 µM
- IC50 (cells [3]): 10 µM
- IC50 (cells [4]): 10 µM
- IC50 (cells [5]): 10 µM
- IC50 (cells [6]): 10 µM

SMILES: COc1cc2c(Oc3ccc4[nH]c(C)cc4c3F)ncnc2cc1OCCCN1CCCC1 [CEDIRANIB]
- IC50 (cells [7]): 2460 nM
- IC50 (cells [8]): 10 µM
- IC50 (cells [9]): 2.95 µM
- IC50 (cells [10]): 10 µM
- IC50 (cells [11]): 6.46 µM
- IC50 (cells [12]): 4.79 µM

SMILES: Nc1nc(N)c2nc(-c3cccc(O)c3)c(-c3cccc(O)c3)nc2n1 [TG100-115]
- IC50 (cells [1]): 10 µM
- IC50 (cells [2]): 10 µM
- IC50 (cells [3]): 10 µM
- IC50 (cells [4]): 10 µM
- IC50 (cells [5]): 10 µM
- IC50 (cells [6]): 10 µM
